Source: patent publication US20220275274A1, “NEUTRAL FLUORESCENT MITOCHONDRIAL MARKER BASED ON NITROGEN-CONTAINING HETEROCYCLE, PREPARATION METHOD AND USE THEREOF” (SOOCHOW UNIVERSITY, priority 2020, published 2022)

How the values were obtained:
[1] = ultraviolet absorption and fluorescence emission in chloroform; format: physicochemical; conditions: 10 μM; for maximum emission wavelength (fluorescence spectrum): excitation wavelength and slit width per dye
Protocol: The ultraviolet absorption and fluorescence emission of the dyes prepared in the examples and comparative examples (at a concentration of 10 μM) in chloroform were tested. The horizontal ordinate is the wavelength, and the vertical ordinate is the absorbance and fluorescence intensity, respectively.
In the ultraviolet-visible absorption spectrum, dye 1a has the maximum absorption at 378 nm; and in the fluorescence spectrum, dye 1a has the highest fluorescence intensity at 452 nm, where the excitation wavelength is 370 nm, and the slit width is 3 nm/1.5 nm. In the ultraviolet-visible absorption spectrum, dye 1b has a maximum absorption wavelength of 382 nm; and in the fluorescence spectrum, dye 1b has a maximum emission wavelength of 485 nm, where the excitation wavelength is 374 nm, and the slit width is 3 nm/1.5 nm. In the ultraviolet-visible absorption spectrum, dye 1c has a maximum absorption wavelength of 385 nm; and in the fluorescence spectrum, dye 1c has a maximum emission wavelength of 454 nm, where the excitation wavelength is 380 nm, and the slit width is 3 nm/1.5 nm. In the ultraviolet-visible absorption spectrum, dye 2a has the maximum absorption at 364 nm; and in the fluorescence spectrum, dye 2a has the highest fluorescence intensity at 480 nm, where the excitation wavelength is 374 nm, and the slit width is 3 nm/1.5 nm. In the ultraviolet-visible absorption spectrum, dye 2b has a maximum absorption wavelength of 360 nm; and in the fluorescence spectrum, dye 2b has a maximum emission wavelength of 458 nm, where the excitation wavelength is 370 nm, and the slit width is 3 nm/1.5 nm. In the ultraviolet-visible absorption spectrum, dye 2c has a maximum absorption wavelength of 356 nm; and in the fluorescence spectrum, dye 2c has a maximum emission wavelength of 441 nm, where the excitation wavelength is 360 nm, and the slit width is 3 nm/3 nm. In the ultraviolet-visible absorption spectrum, dye 3a has the maximum absorption at 548 nm; and in the fluorescence spectrum, dye 3a has the highest fluorescence intensity at 606 nm, where the excitation wavelength is 560 nm, and the slit width is 1.5 nm/1.5 nm. In the ultraviolet-visible absorption spectrum, dye 3b has a maximum absorption wavelength of 549 nm; and in the fluorescence spectrum, dye 3b has a maximum emission wavelength of 608 nm, where the excitation wavelength is 540 nm, and the slit width is 1.5 nm/1.5 nm. In the ultraviolet-visible absorption spectrum, dye 3c has a maximum absorption wavelength of 554 nm; and in the fluorescence spectrum, dye 3c has a maximum emission wavelength of 611 nm, where the excitation wavelength is 540 nm, and the slit width is 1.5 nm/1.5 nm. In the ultraviolet-visible absorption spectrum, dye 3d has a maximum absorption wavelength of 556 nm; and in the fluorescence spectrum, dye 3d has a maximum emission wavelength of 619 nm, where the excitation wavelength is 570 nm, and the slit width is 1.5 nm/1.5 nm. In the ultraviolet-visible absorption spectrum, dye 4 has a maximum absorption wavelength of 501 nm; and in the fluorescence spectrum, dye 4 has a maximum emission wavelength of 515 nm, where the excitation wavelength is 495 nm, and the slit width is 1.5 nm/1.5 nm. The above UV absorption and fluorescence emission test methods are conventional methods.

[2] = test system: L929 cells; experiment: cell imaging, colocalization with red mitochondrial marker Mito Tracker Red CMXRos; format: cell-based; conditions: dye 1 μM; for mitochondria labeling ability (blue mitochondrial marker): L929 (normal) and HeLa (cancer) cells, vs Mito Tracker Red CMXRos; for colocalization coefficient: L929 cells, vs Mito Tracker Red CMXRos (100 nm), blue and red channel
Protocol: (§1) Dye 1a was formulated into a mother liquor in DMSO (dimethyl sulfoxide), and then added to a conventional cell culture medium to give a concentration of dye 1a in the cell culture medium of 1 μM. L929 cells and HeLa cells were respectively co-cultured for 10 min in an incubator at saturated humidity, 37° C., and 5% CO2 (the experiment was same below). The existing red mitochondrial marker Mito Tracker® Red CMXRos (100 nm) was added, and the cells were co-incubated for another 10 min, washed three times with a PBS buffer, and imaged under a laser confocal microscope. In the blue channel, light of 405 nm was used for excitation, and a fluorescence signal in the range of 410-500 nm was collected; and in the red channel, light of 561 nm was used for excitation, and a fluorescence signal in the range of 570-750 nm was collected. […] The results are shown in FIG. 14, where (a) and (g) are the bright-field images; (b) and (h) are the cell images with dye 1a; (c) and (i) are the cell images with the red mitochondrial marker; (d) and (j) are overlapped images with blue channel and red channel, (e) and (k) show the fluorescence intensity of the ROI line in the overlapped images; and (f) and (1) show colocalization assays, with a colocalization coefficient of 0.90 (L929) and 0.84 (HeLa) respectively.
(§2) The experiment method with dye 1b, dye 1c, dye 2a, dye 2b, and dye 2c (1 μM) is the same as that with dye 1a above, except that dye 1a is replaced. In FIG. 15, (a) and (g) are the bright-field images; (b) and (h) are the cell images with dye 1b; (c) and (i) are the cell images with the red mitochondrial marker; (d) and (j) are overlapped images with blue channel and red channel, (e) and (k) show the fluorescence intensity of the ROI line in the overlapped images; and (f) and (1) show colocalization assays, with a colocalization coefficient of 0.81 (L929) and 0.83 (HeLa) respectively. In FIG. 16, (a) and (g) are the bright-field images; (b) and (h) are the cell images with dye 1c; (c) and (i) are the cell images with the red mitochondrial marker; (d) and (j) are overlapped images with blue channel and red channel, (e) and (k) show the fluorescence intensity of the ROI line in the overlapped images; and (f) and (1) show a colocalization assay, both having a colocalization coefficient of 0.77. In FIG. 17, (a) and (g) are the bright-field images; (b) and (h) are the cell images with dye 2a; (c) and (i) are the cell images with the red mitochondrial marker; (d) and (j) are overlapped images with blue channel and red channel, (e) and (k) show the fluorescence intensity of the ROI line in the overlapped images; and (f) and (1) show colocalization assays, with a colocalization coefficient of 0.79 (L929) and 0.80 (HeLa) respectively. In FIG. 18, (a) and (g) are the bright-field images; (b) and (h) are the cell images with dye 2b; (c) and (i) are the cell images with the red mitochondrial marker; (d) and (j) are overlapped images with blue channel and red channel, (e) and (k) show the fluorescence intensity of the ROI line in the overlapped images; and (f) and (1) show colocalization assays, with a colocalization coefficient of 0.85 (L929) and 0.79 (HeLa) respectively. In FIG. 19, (a) and (g) are the bright-field images; (b) and (h) are the cell images with dye 2c; (c) and (i) are the cell images with the red mitochondrial marker; (d) and (j) are overlapped images with blue channel and red channel, (e) and (k) show the fluorescence intensity of the ROI line in the overlapped images; and (f) and (1) show colocalization assays, with a colocalization coefficient of 0.82 (L929) and 0.84 (HeLa) respectively.

[3] = test system: HeLa cells; experiment: as above; format: cell-based; conditions: dye 1 μM, vs Mito Tracker Red CMXRos (100 nm); for colocalization coefficient: blue and red channel
Protocol: as §1, §2
Dye 4 was formulated into a mother liquor in DMSO, and then added to a conventional cell culture medium to give a concentration of dye 4 in the cell culture medium of 1 μM. HeLa cells were co-cultured for 10 min in an incubator at saturated humidity, 37° C., and 5% CO2. […]

SMILES	maximum absorption wavelength (ultraviolet-visible absorption spectrum) [1]	maximum emission wavelength (fluorescence spectrum) [1]	mitochondria labeling ability (blue mitochondrial marker) [2]	colocalization coefficient [2]	colocalization coefficient [3]	overlap with the red mitochondrial marker ([3]; green and red channel)
CCN(CC)c1ccc2c(C)c(-c3ccc4[nH]ncc4c3)c(=O)oc2c1 [dye 1a]	378 nm	452 nm	mitochondria labeling ability in both normal cells and cancer cells	0.90	0.84	
CCN(CC)c1ccc2c(C)c(-c3cnc4[nH]ccc4c3)c(=O)oc2c1 [dye 1b]	382 nm	485 nm	mitochondria labeling ability in both normal cells and cancer cells	0.81	0.83	
CCN(CC)c1ccc2c(C)c(-c3cnc4[nH]ncc4c3)c(=O)oc2c1 [dye 1c]	385 nm	454 nm	mitochondria labeling ability in both normal cells and cancer cells	0.77	0.77	
CCCCN1C(=O)c2cccc3c(-c4ccc5[nH]ncc5c4)ccc(c23)C1=O [dye 2a]	364 nm	480 nm	mitochondria labeling ability in both normal cells and cancer cells	0.79	0.80	
CCCCN1C(=O)c2cccc3c(-c4cnc5[nH]ccc5c4)ccc(c23)C1=O [dye 2b]	360 nm	458 nm	mitochondria labeling ability in both normal cells and cancer cells	0.85	0.79	
CCCCN1C(=O)c2cccc3c(-c4cnc5[nH]ncc5c4)ccc(c23)C1=O [dye 2c]	356 nm	441 nm	mitochondria labeling ability in both normal cells and cancer cells	0.82	0.84	
CC1=CC(C)=[N+]2C1=C(c1ccc(-c3ccc4[nH]ncc4c3)cc1)c1c(C)cc(C)n1[B-]2(F)F [dye 4]	501 nm	515 nm				cannot be overlapped well with the red mitochondrial marker
